Patent publication US20080026074A1, “Method of short term skin wrinkles correction using strontium divalent ion” (priority 2006, published 2008)

Key:
[1] = system: photoaged skin; assay: topical application of strontium ion in a carrier to skin; type: in vivo; conditions: carrier e.g. distillate of orange flower petals (neroli floral water), within minutes of application
Experimental: The epidermal ridges are less pronounced, an effect that may be related to relaxation of erector muscles.
This effect lasted for about 4 hours.

[2] = taken orally, long term use; cited from earlier work

Q: For `[Sr+2]` [strontium ion], which “effect on skin texture” value [1] is on record?
A: Its value is “changes the texture of photoaged skin, resulting in a more youthful complexion”.

Q: And the toxicity [2]?
A: The toxicity was “toxicity is not a problem”.
